In experiment [1] the target is T1, MAGL (Mus musculus (Mouse), UniProt O35678). The experiment can be described thus: Mouse brain proteomes from inhibitor treated mice (oral gavage, sacrificed 4 h after administration, ABPP analysis). It counts as in vivo, mouse (C57Bl/6J). The settings on record: 5 mg/kg oral gavage. Put shortly: (§1)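 Read-out is % inhibition at 5 mg/kg in brain proteomes profiled by activity-based protein profiling. Inhibitors were dosed orally to wild-type C57Bl/6J mice, with sacrifice at 4 h.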
T1 sequence (O35678 whole entry): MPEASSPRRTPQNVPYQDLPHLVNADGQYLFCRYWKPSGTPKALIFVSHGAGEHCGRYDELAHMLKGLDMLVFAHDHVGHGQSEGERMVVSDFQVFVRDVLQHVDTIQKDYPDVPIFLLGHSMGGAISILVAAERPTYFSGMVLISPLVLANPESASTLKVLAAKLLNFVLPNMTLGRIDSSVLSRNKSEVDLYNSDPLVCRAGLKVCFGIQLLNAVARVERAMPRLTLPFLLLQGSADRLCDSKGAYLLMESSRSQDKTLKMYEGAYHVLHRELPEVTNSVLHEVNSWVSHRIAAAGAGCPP

In experiment [2] the target is T2, ABHD6 (Mus musculus (Mouse), UniProt Q8R2Y0). The experiment is described as follows: In vitro competitive activity-based protein profiling (mouse brain membrane fraction or cell lysates), ABHD6 band. It counts as biochemical. As to conditions: mouse proteome; for inhibition at 1 µM: read-out: ABHD6 % Inh 1 μM (mouse); for IC50: competitive ABPP. Put shortly:
(§2)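 Mouse proteome samples (brain membrane fraction or cell lysate, 1.0 mg/mL protein) were pretreated with varying inhibitor concentrations and subsequently probed with fluorophosphonate-rhodamine, each step lasting 30 min at 37° C. Labelled proteins were separated by SDS-PAGE, and band fluorescence was imaged and quantified.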

For experiment [3], the target named is T3, FAAH (Mus musculus (Mouse), UniProt O08914). The experiment can be described thus: In vitro competitive activity-based protein profiling (mouse brain membrane fraction or cell lysates), FAAH band. It is filed as biochemical. As to conditions: mouse proteome; for inhibition at 1 µM: read-out: FAAH % Inh 1 μM (mouse); for IC50: competitive ABPP. Put shortly: as §2
T3 sequence (O08914 whole entry): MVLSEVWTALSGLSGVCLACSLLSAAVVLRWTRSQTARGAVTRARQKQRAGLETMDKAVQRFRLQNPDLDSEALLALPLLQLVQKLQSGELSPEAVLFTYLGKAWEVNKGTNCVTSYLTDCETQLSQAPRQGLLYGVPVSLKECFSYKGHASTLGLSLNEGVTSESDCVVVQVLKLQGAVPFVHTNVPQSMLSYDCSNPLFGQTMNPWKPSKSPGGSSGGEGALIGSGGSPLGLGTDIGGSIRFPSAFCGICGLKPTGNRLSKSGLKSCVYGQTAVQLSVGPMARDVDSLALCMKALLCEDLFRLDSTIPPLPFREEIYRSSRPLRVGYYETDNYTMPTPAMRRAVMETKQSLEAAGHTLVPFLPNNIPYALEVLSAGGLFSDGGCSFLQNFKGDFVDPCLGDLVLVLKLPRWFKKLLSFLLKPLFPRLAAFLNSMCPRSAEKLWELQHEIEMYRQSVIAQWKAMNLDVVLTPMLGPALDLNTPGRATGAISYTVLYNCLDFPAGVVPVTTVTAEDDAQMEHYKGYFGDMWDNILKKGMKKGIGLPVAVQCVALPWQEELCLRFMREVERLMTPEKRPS

Experiment [4] concerns the target T2, ABHD6. The experiment can be described thus: Mouse brain proteomes from inhibitor treated mice (oral gavage, sacrificed 4 h after administration, ABPP analysis), ABHD6. It is filed as in vivo, mouse (C57Bl/6J). As to conditions: 5 mg/kg oral gavage. The method in brief:
as §1

Experiment [5] concerns the target T3, FAAH. The experiment is described as follows: Mouse brain proteomes from inhibitor treated mice (oral gavage, sacrificed 4 h after administration, ABPP analysis), FAAH. It is filed as in vivo, mouse (C57Bl/6J). As to conditions: 5 mg/kg oral gavage. Put shortly:
as §1

For experiment [6], the target named is T1, MAGL. The experiment can be described thus: In vitro competitive activity-based protein profiling (mouse brain membrane fraction or cell lysates), MAGL band. The settings on record: mouse proteome; for inhibition at 1 µM: read-out: MAGL % Inh 1 μM (mouse); for IC50: competitive ABPP. It is filed as biochemical. The procedure: In Vitro Competitive Activity-Based Protein Profiling.
Proteomes (mouse brain membrane fraction or cell lysates) (50 μL, 1.0 mg/mL total protein concentration) were preincubated with varying concentrations of inhibitors at 37° C. After 30 min, FP—Rh (1.0 μL, 50 μM in DMSO) was added and the mixture was incubated for another 30 min at 37° C. Reactions were quenched with SDS loading buffer (50 μL-4×) and run on SDS-PAGE.

A value given as a limit tells only on which side of the number the result lay.

T2 sequence (Q8R2Y0 whole entry): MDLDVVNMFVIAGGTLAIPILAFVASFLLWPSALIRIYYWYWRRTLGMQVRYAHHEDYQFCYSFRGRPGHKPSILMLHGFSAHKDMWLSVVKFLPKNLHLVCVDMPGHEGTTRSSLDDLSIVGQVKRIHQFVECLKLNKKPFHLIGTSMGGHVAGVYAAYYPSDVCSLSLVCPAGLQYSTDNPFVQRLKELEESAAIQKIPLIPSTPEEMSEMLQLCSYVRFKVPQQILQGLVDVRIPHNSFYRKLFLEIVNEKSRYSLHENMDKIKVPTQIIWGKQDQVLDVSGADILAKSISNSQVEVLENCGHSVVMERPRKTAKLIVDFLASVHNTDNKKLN

Consider `O=C(OC(C(F)(F)F)C(F)(F)F)N1CCC2(CCCN2Cc2ccc(Cl)cc2N2CCC(F)CC2)CC1` [Example 102, 1,1,1,3,3,3-Hexafluoropropan-2-yl 1-(4-chloro-2-(4-fluoropiperidin-1-yl)benzyl)-1,8-diazaspiro[4.5]decane-8-carboxylate], for which the “MAGL % Inh 5 mg/kg (mouse)” value in experiment [1] is recorded as “### (### is ≥75%)”. In addition, the figures for the inhibition at 1 µM in experiment [2], in experiment [3] and in experiment [6] were less than 25%, less than 25% and greater than 75%, respectively. Further, the half-maximal inhibitory concentration (IC50) in experiment [2] was greater than 1000 nM; in experiment [3], greater than 1000 nM; in experiment [6], less than 100 nM. Further, the “ABHD6 % Inh 5 mg/kg (mouse)” value in experiment [4] is recorded as “# (# is <25%)”. For the same compound, the “FAAH % Inh 5 mg/kg (mouse)” value in experiment [5] is on record as “# (# is <25%)”.
On to `CC(=O)NC1CCN(c2cc(Cl)ccc2CN2CCCC23CCN(C(=O)OC(C(F)(F)F)C(F)(F)F)CC3)CC1` [Example 104, 1,1,1,3,3,3-Hexafluoropropan-2-yl 1-(2-(4-acetamidopiperidin-1-yl)-4-chlorobenzyl)-1,8-diazaspiro[4.5]decane-8-carboxylate], for which the “MAGL % Inh 5 mg/kg (mouse)” value in experiment [1] is given as “## (## is equal to or greater than 25% but less than 75%)”. For the same compound, the inhibition at 1 µM in experiment [2] is less than 25%; in experiment [3], 25 to 75%; in experiment [6], greater than 75%. Further, the IC50 is greater than 1000 nM in experiment [2], greater than 1000 nM in experiment [3] and less than 100 nM in experiment [6]. Also, the “ABHD6 % Inh 5 mg/kg (mouse)” value in experiment [4] was “# (# is <25%)”. For the same compound, the “FAAH % Inh 5 mg/kg (mouse)” value in experiment [5] is on record as “# (# is <25%)”.
Turning to `CS(=O)(=O)NC1CCN(c2cc(Cl)ccc2CN2CCCC23CCN(C(=O)OC(C(F)(F)F)C(F)(F)F)CC3)CC1` [Example 105, 1,1,1,3,3,3-Hexafluoropropan-2-yl 1-(4-chloro-2-(4-(methylsulfonamido)piperidin-1-yl)benzyl)-1,8-diazaspiro[4.5]decane-8-carboxylate], the “MAGL % Inh 5 mg/kg (mouse)” value in experiment [1] is on record as “# (# is <25%)”. Also, the inhibition at 1 µM in experiment [2] was less than 25%; in experiment [3], less than 25%; in experiment [6] it was greater than 75%. Moreover, the IC50 in experiment [2] is greater than 1000 nM; in experiment [3] it was greater than 1000 nM; in experiment [6], less than 100 nM. Moreover, the “ABHD6 % Inh 5 mg/kg (mouse)” value in experiment [4] is “# (# is <25%)”. For the same compound, the “FAAH % Inh 5 mg/kg (mouse)” value in experiment [5] is reported as “# (# is <25%)”.
As for `O=C(OC(C(F)(F)F)C(F)(F)F)N1CCC2(CCCN2Cc2ccc(Cl)cc2N2CCC2)CC1` [Example 107, 1,1,1,3,3,3-Hexafluoropropan-2-yl 1-(2-(azetidin-1-yl)-4-chlorobenzyl)-1,8-diazaspiro[4.5]decane-8-carboxylate], in experiment [1], the “MAGL % Inh 5 mg/kg (mouse)” value was “### (### is ≥75%)”. Also, the results for the inhibition at 1 µM in experiment [2], in experiment [3] and in experiment [6] were less than 25%, less than 25% and greater than 75%, respectively. The IC50 in experiment [2] is greater than 1000 nM; in experiment [3], greater than 1000 nM; in experiment [6], less than 100 nM. In addition, the “ABHD6 % Inh 5 mg/kg (mouse)” value in experiment [4] is “# (# is <25%)”. In experiment [5], the “FAAH % Inh 5 mg/kg (mouse)” value is on record as “## (## is equal to or greater than 25% but less than 75%)”.
Regarding `O=C(OC(C(F)(F)F)C(F)(F)F)N1CCC2(CCCN2Cc2ccc(Cl)cc2N2CC3COCC3C2)CC1` (stereo not drawn) [Example 108, 1,1,1,3,3,3-Hexafluoropropan-2-yl 1-(4-chloro-2-(tetrahydro-1H-furo[3,4-c]pyrrol-5(3H)-yl)benzyl)-1,8-diazaspiro[4.5]decane-8-carboxylate], the “MAGL % Inh 5 mg/kg (mouse)” value in experiment [1] was “### (### is ≥75%)”. Also, the inhibition at 1 µM is less than 25% in experiment [2], less than 25% in experiment [3] and greater than 75% in experiment [6]. Also, the IC50 in experiment [2] was greater than 1000 nM; in experiment [3] it was greater than 1000 nM; in experiment [6], less than 100 nM. Also, in experiment [4], the “ABHD6 % Inh 5 mg/kg (mouse)” value is given as “# (# is <25%)”. The “FAAH % Inh 5 mg/kg (mouse)” value in experiment [5] was “# (# is <25%)”.
In the case of `Cc1cc(CN2CCCC23CCN(C(=O)OC(C(F)(F)F)C(F)(F)F)CC3)ccc1Cl` [Example 124, 1,1,1,3,3,3-Hexafluoropropan-2-yl 1-(4-chloro-3-methylbenzyl)-1,8-diazaspiro[4.5]decane-8-carboxylate], in experiment [1], the “MAGL % Inh 5 mg/kg (mouse)” value is given as “### (### is ≥75%)”. Besides, the inhibition at 1 µM was less than 25% in experiment [2], less than 25% in experiment [3] and greater than 75% in experiment [6]. The IC50 was greater than 1000 nM in experiment [2], greater than 1000 nM in experiment [3] and less than 100 nM in experiment [6]. The “ABHD6 % Inh 5 mg/kg (mouse)” value in experiment [4] was “# (# is <25%)”. Further, the “FAAH % Inh 5 mg/kg (mouse)” value in experiment [5] is recorded as “# (# is <25%)”.
As to `Cc1ccc(CN2CCCC23CCN(C(=O)OC(C(F)(F)F)C(F)(F)F)CC3)cc1Cl` [Example 125, 1,1,1,3,3,3-Hexafluoropropan-2-yl 1-(3-chloro-4-methylbenzyl)-1,8-diazaspiro[4.5]decane-8-carboxylate], in experiment [1], the “MAGL % Inh 5 mg/kg (mouse)” value is reported as “### (### is ≥75%)”. Also, the results for the inhibition at 1 µM in experiment [2], in experiment [3] and in experiment [6] were less than 25%, less than 25% and greater than 75%, respectively. The half-inhibitory concentration (IC50) in experiment [2] was greater than 1000 nM; in experiment [3], greater than 1000 nM; in experiment [6], less than 100 nM. In addition, in experiment [4], the “ABHD6 % Inh 5 mg/kg (mouse)” value is “# (# is <25%)”. Further, the “FAAH % Inh 5 mg/kg (mouse)” value in experiment [5] is listed as “# (# is <25%)”.
For `O=C(OC(C(F)(F)F)C(F)(F)F)N1CCC2(CCCN2Cc2ccc(N3CCCC3)c(Cl)c2)CC1` [Example 128, 1,1,1,3,3,3-Hexafluoropropan-2-yl 1-(3-chloro-4-(pyrrolidin-1-yl)benzyl)-1,8-diazaspiro[4.5]decane-8-carboxylate], the “MAGL % Inh 5 mg/kg (mouse)” value in experiment [1] is “### (### is ≥75%)”. Moreover, the figures for the inhibition at 1 µM in experiment [2], in experiment [3] and in experiment [6] were less than 25%, less than 25% and greater than 75%, respectively. Further, the IC50 in experiment [2] was greater than 1000 nM; in experiment [3] it was greater than 1000 nM; in experiment [6], less than 100 nM. In addition, the “ABHD6 % Inh 5 mg/kg (mouse)” value in experiment [4] is listed as “# (# is <25%)”. Besides, in experiment [5], the “FAAH % Inh 5 mg/kg (mouse)” value is “# (# is <25%)”.
For `O=C(OC(C(F)(F)F)C(F)(F)F)N1CCC2(CCCN2Cc2ccc(N3CCOCC3)c(C(F)(F)F)c2)CC1` [Example 129, 1,1,1,3,3,3-Hexafluoropropan-2-yl 1-(4-morpholino-3-(trifluoromethyl)benzyl)-1,8-diazaspiro[4.5]decane-8-carboxylate], the “MAGL % Inh 5 mg/kg (mouse)” value in experiment [1] is recorded as “### (### is ≥75%)”. For the same compound, the figures for the inhibition at 1 µM in experiment [2], in experiment [3] and in experiment [6] were 25 to 75%, less than 25% and greater than 75%, respectively. Besides, the values for the half-inhibitory concentration (IC50) in experiment [2], in experiment [3] and in experiment [6] were greater than 1000 nM, greater than 1000 nM and less than 100 nM, respectively. Also, the “ABHD6 % Inh 5 mg/kg (mouse)” value in experiment [4] is “# (# is <25%)”. Also, the “FAAH % Inh 5 mg/kg (mouse)” value in experiment [5] is “# (# is <25%)”.
With `O=C(OC(C(F)(F)F)C(F)(F)F)N1CCC2(CCCN2Cc2ccc(N3CCCC3)c(C(F)(F)F)c2)CC1` [Example 130, 1,1,1,3,3,3-Hexafluoropropan-2-yl 1-(4-(pyrrolidin-1-yl)-3-(trifluoromethyl)benzyl)-1,8-diazaspiro[4.5]decane-8-carboxylate], the “MAGL % Inh 5 mg/kg (mouse)” value in experiment [1] is listed as “### (### is ≥75%)”. In addition, the results for the inhibition at 1 µM in experiment [2], in experiment [3] and in experiment [6] were 25 to 75%, less than 25% and greater than 75%, respectively. Further, the IC50 in experiment [2] is greater than 1000 nM; in experiment [3], greater than 1000 nM; in experiment [6], less than 100 nM. Also, the “ABHD6 % Inh 5 mg/kg (mouse)” value in experiment [4] is recorded as “# (# is <25%)”. Moreover, the “FAAH % Inh 5 mg/kg (mouse)” value in experiment [5] is reported as “# (# is <25%)”.

The values are drawn from patent US10030020B2, “Spirocycle compounds and methods of making and using same” (Abide Therapeutics, Inc., priority 2016, dated 2018).
